From patent US10968214B2, “KRas G12C inhibitors” (Eli Lilly and Company, priority 2018, dated 2021)
pIC50: −log10 of the molar value. Like-named read-outs stand apart in the source and are kept apart here.

Assays:
KRas G12C = KRas G12C (Homo sapiens, UniProt P01116, G12C); assay: KRas G12C Probe Occupancy TR-FRET Assay; format: binding; conditions: read-out: IC50
Method: Inhibitors are tested in dose response format from 10 mM stocks in 100% DMSO. The Labycyte Echo® 555 is used to dilute and transfer 100 nL per well containing a 10 point, 2.8-fold serial dilution to an assay plate. […] The signal ratio (em at 665/em at 615) is converted to percent inhibition using the following equation: % Inhibition=100−[(Test Compound Signal−Median Minimum Signal)/(Median Maximum Signal−Median Minimum Signal)×100].

EL3187 = assay: CellTiterGlo Cell Proliferation Assay, EL3187; format: cell-based; conditions: KRas G12C, Lung, 96 hr
Method: (§1) A panel of tumor cell lines harboring KRas G12C or other KRas mutations are collected (Table 6). All cell lines are from ATCC or other sources indicated.
(§2) Typically cells are cultured in RPMI1640 or Dulbecco's modified Eagle's medium (DMEM, GIBCO) supplemented with 10% FBS (GIBCO, Invitrogen). For 2D culture cells (4×10^3/well) maintained in growth medium described above, are plated onto 96 well tissue culture plates Corning® Cat. 3603) a day before the treatment. For 3D culture 8000 cells/well are seeded onto 96 well ultra-low attachment tissue culture plates (Corning, #3474). The cells are treated compound for 96 hr, and then are analyzed for viability using the CellTiterGlo® Luminescent Cell Viability Assay® (Promega #G7572 for 2D and Promega #G9683 for 3D cultures) according to manufacturer's instructions and an EnVision™ plate reader. Nonlinear regression and sigmoidal dose-response curves are used to calculate the half maximal inhibitory concentration (IC50) with GraphPad Prism 4® software.

KYSE-410 xenograft = assay: Anti-tumor growth activity, KYSE-410 esophageal xenograft; format: in vivo; conditions: 28 Day, negative = regression
H2122 [1] = assay: CellTiterGlo Cell Proliferation Assay, H2122; format: cell-based; conditions: Homo sapiens, NCI-H2122, KRas G12C, Lung, 96 hr
Method: as §1, §2

H2122 [2] = assay: Combination 4 day growth assay (Cell TiterGlo), H2122; format: cell-based; conditions: Homo sapiens, NCI-H2122, 96 h, single treatment, read-out: Absolute IC50
Method: (§3) Cell lines for this study are obtained from ATCC and grown under ATCC recommended conditions, except for LXFA-983L, which is obtained from Oncotest/Charles Rivers Laboratories, Wilmington, Mass. and D122-96, which is obtained from L. Eisenbach (Weizman Institute of Science, Rehovot, Israel)—both grown under recommended conditions. […] The proliferation assay is performed as a 4 day growth assay using Cell TiterGlo® as the readout. Briefly, cells are plated in 96-well cell culture plates and allowed to adhere overnight at 37° C. The following day, cells are treated with compounds, either single treatments or combination treatments. First, the testing compounds are serially diluted in DMSO, followed by dilution into media as a 5× concentration with 1% DMSO, and finally added to cells in media to dilute to 1×. The cells are incubated at 37° C. for 4 more days. At the end of the incubation period, Cell TiterGlo® reagent is mixed and added to the wells. After 10 minutes, the luminescence is read by a Perkin Elmer Envision instrument. Absolute IC50 values generated by a 4-parameter logistics model for the single and combination treatments are generated, followed by combination indexes for each combination treatment and cell line. The combination IC50 values are adjusted based on the total concentration of each compound when added together. […] The combination index (CI) measures the degree to which the potency of a combination therapy differs from the expected-if-additive potency and is based on the Loewe definition of additivity.
(§4) [formula] Where • CAy and CBy are the concentrations of therapies A and B that produce an effect, y, when given in combination • ICAy and ICBy are the concentrations of A and B that produce an effect, y, when given individually The biological interpretation of the combination index is as follows: synergistic if the combination index <0.5, additive if the combination index is between 0.5 and 2, and antagonistic if the combination index is >2.

LXFA-983L = assay: Combination 4 day growth assay (Cell TiterGlo), LXFA-983L; format: cell-based; conditions: LXFA 983L, 96 h, single treatment, read-out: Absolute IC50
Method: as §3, §4

SW837 = assay: CellTiterGlo Cell Proliferation Assay, SW837; format: cell-based; conditions: Homo sapiens, KRas G12C, Rectum, 96 hr
Method: as §1, §2

SW837 xenograft = assay: Anti-tumor growth activity, SW837 colorectal xenograft; format: in vivo; conditions: for Tumor Growth Inhibition (%) or Regression (−%): 28 Day, negative = regression
UM-UC-3 = assay: CellTiterGlo Cell Proliferation Assay, UM-UC-3; format: cell-based; conditions: Homo sapiens, UMUC3, KRas G12C, Bladder, 96 hr
Method: as §1, §2

HCC827 = assay: CellTiterGlo Cell Proliferation Assay, HCC827; format: cell-based; conditions: Homo sapiens, KRas wild type, lung, 96 hr
Method: as §1, §2

MiaPaca-2 xenograft = assay: Anti-tumor growth activity, MiaPaca-2 pancreatic xenograft; format: in vivo; conditions: for Tumor Growth Inhibition (%) or Regression (−%): 28 Day, negative = regression
D122-96 = assay: Combination 4 day growth assay (Cell TiterGlo), D122-96; format: cell-based; conditions: Mus musculus, 96 h, single treatment, read-out: Absolute IC50
Method: as §3, §4

[3] = read-out: IC50 (μM) in 2 D cell proliferation
[4] = read-out: IC50 (μM) in 3 D spheroid cell proliferation

KRas G12C, sequence (P01116 1-188 isoform P01116-2 G12C): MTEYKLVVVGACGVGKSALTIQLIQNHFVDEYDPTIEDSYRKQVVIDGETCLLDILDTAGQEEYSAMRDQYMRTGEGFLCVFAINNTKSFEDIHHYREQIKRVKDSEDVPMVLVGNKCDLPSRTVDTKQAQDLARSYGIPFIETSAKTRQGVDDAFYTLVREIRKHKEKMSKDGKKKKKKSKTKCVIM

pIC50 (KRas G12C; 5 min incubation): 7.60
pIC50 (KRas G12C; 60 min incubation): 7.62
IC50 (H2122 [1]; [3]): 0.187 µM
IC50 (H2122 [1]; [4]): 0.017 µM
pIC50 (H2122 [2]): 5.54
IC50 (SW837; [3]): 0.169 µM
IC50 (SW837; [4]): 0.126 µM
IC50 (HCC827; [3]): 18.9 µM
IC50 (HCC827; [4]): 4.63 µM
SMILES: C=CC(=O)N1CCN(c2ncnc3c(F)c(-c4ccc(F)c5sc(N)nc45)c(Cl)cc23)CC1 [Example 1, 1-{4-[7-(2-Amino-7-fluoro-1,3-benzothiazol-4-yl)-6-chloro-8-fluoroquinazolin-4-yl]piperazin-1-yl}prop-2-en-1-one]
IC50 (EL3187; [3]): 0.003 µM
IC50 (EL3187; [4]): 0.013 µM
Tumor Growth Inhibition (%) or Regression (−%) (KYSE-410 xenograft; 15 mg/kg BID): 21.2%
Tumor Growth Inhibition (%) or Regression (−%) (KYSE-410 xenograft; 30 mg/kg BID): −9%
Tumor Growth Inhibition (%) or Regression (−%) (KYSE-410 xenograft; 30 mg/kg QD): 74.5%
pIC50 (LXFA-983L): 5.59
Tumor Growth Inhibition (%) or Regression (−%) (SW837 xenograft; 15 mg/kg BID): −17%
Tumor Growth Inhibition (%) or Regression (−%) (SW837 xenograft; 30 mg/kg BID): −46.1%
Tumor Growth Inhibition (%) or Regression (−%) (SW837 xenograft; 30 mg/kg QD): −10.8%
In Vivo Anti-Tumor Activities (SW837 xenograft; Example 1 30 mg/kg QDx28): −51.8
IC50 (UM-UC-3; [3]): 0.124 µM
IC50 (UM-UC-3; [4]): 0.075 µM
Tumor Growth Inhibition (%) or Regression (−%) (MiaPaca-2 xenograft; 10 mg/kg BID): 75.48%
Tumor Growth Inhibition (%) or Regression (−%) (MiaPaca-2 xenograft; 10 mg/kg QD): 44.4%
Tumor Growth Inhibition (%) or Regression (−%) (MiaPaca-2 xenograft; 30 mg/kg BID): −49.6%
Tumor Growth Inhibition (%) or Regression (−%) (MiaPaca-2 xenograft; 30 mg/kg QD): 95.6%
In Vivo Anti-Tumor Activities (MiaPaca-2 xenograft; Example 1 30 mg/kg QDx28): 91.22
pIC50 (D122-96): 6.90
